For one series, the system named is MDCK. Briefly: Cytotoxicity against MDCK cells assessed as cell viability after 72 hrs by MTT assay. The format is cell-based, Canis lupus familiaris. The settings on record: dog.
The target in series [1] is Matrix protein 2 (Influenza A virus (A/Udorn/307/1972(H3N2)), UniProt P0DOF8). Briefly: Inhibition of Influenza A virus wild type M2 proton channel infected in Xenopus laevis oocytes after 2 mins by TEVC assay. The format is cell-based.
The next series has as its system Influenza A virus. Briefly: Antiviral activity against Influenza A virus A/udorn/72(H3N2) expressing wild type M2 proton channel infected in MDCK cells assessed as reduction in plaque formation preincubated for 30 mins followed by infection measured on day 2 post infection by naphthalene black dye-based assay. The format is functional, organism-based, Influenza A virus (A/udorn/1972(H3N2)).

Some results are limits rather than exact numbers.

Matrix protein 2 (Influenza A virus (A/Udorn/307/1972(H3N2)), UniProt P0DOF8), sequence (P0DOF8 whole entry): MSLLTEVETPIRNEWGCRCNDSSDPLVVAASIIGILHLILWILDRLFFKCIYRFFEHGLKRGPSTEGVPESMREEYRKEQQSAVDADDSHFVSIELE

For `c1csc(-c2cc(NC34CC5CC(CC(C5)C3)C4)no2)c1`, the CC50 in the series with MDCK was 100 µM.
As for `C1CCC2(CC1)CCNCC2`, half-maximal inhibition in series [1] (IC50) required 0.9 µM.
For the compound `OC12CC3CC(O)(C1)CC(NCc1cc(-c4cccs4)on1)(C3)C2`, the CC50 in the series with MDCK was greater than 200 µM.
In the case of `NC12CC3CC(CC(C3)C1)C2` [AMANTADINE], the EC50 with Influenza A virus was 0.3 µM.
With `OC1C2CC3CC1CC(NCc1cc(-c4cccs4)on1)(C3)C2` (configuration not stated), in the series with MDCK, the CC50 was 116 µM.
The same measure, in the same setting: for `c1csc(-c2nnc(CNC34CC5CC(CC(C5)C3)C4)s2)c1` the value was greater than 200 µM; for `c1csc(-c2ncc(CNC34CC5CC(CC(C5)C3)C4)s2)c1`, 113 µM.
